The text below walks through data of US20150152091A1, “CROP ENHANCEMENT” (Syngenta Participations AG, priority 2012, published 2015).

Holding throughout (assay type): in vivo
Experiment [1] concerns Soybean seeds cv. Toliman. The experiment in a line: Soybean seedling emergence in saturated cold test (seed treatment). The note with it: for Total shoot dry mass: per tray. On the procedure:
(§1) Soybean seeds cv. Toliman were treated with a test compound of formula I formulated as FS100, at a dose of 0.05 g ai/kg, 0.005 g ai/kg, or 0.0001 g ai/kg seeds. Seeds were planted on 2 cm levelled pre-chilled moist sand and covered with a 2 cm layer of a mixture of steamed soil and sand (1:1). Enough cold water (10° C.) was added to the sand-soil mixture to adjust soil moisture to 60% water holding capacity. The seeds were incubated at 10° C. in the dark for 10 days and transferred into a chamber with alternating temperature (25° C. day/23° C. night) and light source (12 h) for 10 days. Seedling emergence in % and dry mass of above parts of seedling per tray was determined at the end of the incubation period. The test was performed using four replicates (4×50 seeds).

In experiment [2] the test system is temperate cauliflower Spacestar seeds (Brassica oleracea cv Botrytis). The experiment is described as follows: Standard paper germination test for Brassica, suboptimal conditions. Particulars: 25 μM, 10° C. in the light. On the procedure: The effect of compounds of Formula (I) on the germination of Brassica oleracea cv Botrytis or common cauliflower was tested on two types of cauliflowers: temperate types and tropical types. These two types were chosen because they display different sensitivities to the light conditions and temperature during germination. Germination of a sensitive temperate type is inhibited by light at 10° C. while for the tropical types germination at 20° is stimulated by the presence of light. […] The temperate seed batches tested are part of commercially produced seed batches of various varieties which are known to be sensitive to light at 10° C. These seeds were harvested and cleaned according standard commercial procedures. Ready seed batches were used (Ready indicates the processing level of these seeds: they have been cleaned and sized but received no other treatments). The tropical seed batches tested are part of seed batches produced as basic seed (for maintenance of the parental line) and were processed accordingly. Germination was assessed using the standard paper germination test for Brassica: Fifty seeds were placed on blue germination paper, which was moistened with the appropriate solutions, in closed oblong germination boxes. Each condition was tested in duplo. Germination boxes were placed in controlled germination cabinets with the appropriate temperature and light conditions. Germination of seeds was counted at regular intervals. Seeds were considered to be germinated when the radical had protruded the testa and endosperm (radical size approximately 1 mm). Test compounds were dissolved in DMSO at a concentration of 50 mM and stored at −20° C. The strigolactone analogue GR24 (commercially available as a racemic mixture of 2 diastereoisomers, referred to as “synthetic strigolactone GR-24” and first prepared by Johnson A. W. & all, Journal of the Chemical Society, Perkin Transactions 1, 1981, page 1734-1743) was included as positive control. Germination solutions were prepared by diluting the stock solutions with demineralized water till 25 μM. As control solutions demineralized water and a 0.05% v/v DMSO solution were used.

The subject of experiment [3] is Soybean seeds cv. Toliman. The experiment is described as follows: Soybean seedling emergence in saturated warm test (seed treatment). How it is done: as §1, with “seeds). Treated seeds used in the saturated cold test were evaluated in parallel in a saturated warm test. Test conditions were the same as those described for the 10 day warm incubation period of the saturated cold test. Briefly, seeds were placed onto a saturated sand layer of 2 cm and covered with saturated sand-soil mixture (60% WHC) at room temperature. The seeds were incubated 10 days at 25° C. day/23° C. night and 12 h light. Seedling emergence and shoot dry mass was determined as described in the saturated cold test method. The test was performed using four replicates each 50 seeds.” for “seeds).”

Setting [4] is: 0.05 g ai/kg seeds, FS100, 10 days 10° C. dark then 10 days 25/23° C.
Where [5] appears, read: Spacestar 11B313 (cold-sensitive), set A.
The mark [6] stands for this setting: Spacestar 11B314 (not cold sensitive), set A.
The mark [7] stands for this setting: 0.05 g ai/kg seeds, 10 days 25/23° C.
The mark [8] stands for this setting: Spacestar 11B313 (cold-sensitive), set B.
Setting [9] is: Spacestar 11B314 (not cold sensitive), set B.

Each structure is given as a SMILES string.

Consider `CC1=CC(OC=C2C(=O)N(C(=O)OC(C)(C)C)C3c4ccccc4CC23)OC1=O` (mixture of isomers) [Compound A5], for which the “Seedling emergence (%)” value amounted to 48% in experiment [1] (0.0001 g ai/kg seeds, FS100); 51.5% in experiment [1] (0.005 g ai/kg seeds, FS100); 55% in experiment [1] (setting [4]); 91% in experiment [3] (0.0001 g ai/kg seeds); 91.5% in experiment [3] (0.005 g ai/kg seeds); 91.5% in experiment [3] (setting [7]). The “Total shoot dry mass” value in experiment [1] (0.0001 g ai/kg seeds) came out at 3.420 g; in experiment [1] (0.005 g ai/kg seeds) it was 3.815 g; in experiment [1] (0.05 g ai/kg seeds) it was 4.105 g; in experiment [3] (0.0001 g ai/kg seeds), 6.260 g; in experiment [3] (0.005 g ai/kg seeds), 6.095 g; in experiment [3] (0.05 g ai/kg seeds), 6.148 g. Besides, the “Gmax (%), total germination as percentage of sown seeds” value (shortened to “Gmax (%) … as percentage of sown seeds”) in experiment [2] (setting [5]) was found to be 74.5%; in experiment [2] (setting [6]), 92.5%. For the same compound, the “stimulation (%), extra germination compared to the DMSO treatment” value (from here on “stimulation (%), extra germination”) in experiment [2] (setting [5]) stood at 24.2%; in experiment [2] (setting [6]) it was 2.2%.
For `CC1=CC(OC=C2C(=O)NC3c4cccc(C)c4CC23)OC1=O` (mixture of isomers) [Compound A9], in experiment [2] (setting [8]), the “Gmax (%) … as percentage of sown seeds” value worked out at 59.8% and the “stimulation (%), extra germination” value is 10.6%. Further, in experiment [2] (setting [9]), the “Gmax (%) … as percentage of sown seeds” value was 94.0% and the “stimulation (%), extra germination” value is 9.3%.
`CC1=CC(OC=C2C(=O)NC3c4ccccc4CC23)OC1=O` (stereo not drawn) [Compound A1]: the “Seedling emergence (%)” value in experiment [1] (0.0001 g ai/kg seeds, FS100) is reported as 67.5%; in experiment [1] (0.005 g ai/kg seeds, FS100) it was 63.5%; in experiment [1] (setting [4]), 54.5%; in experiment [3] (0.0001 g ai/kg seeds), 88.5%; in experiment [3] (0.005 g ai/kg seeds), 89%; in experiment [3] (setting [7]), 91%. Also, the “Total shoot dry mass” value in experiment [1] (0.0001 g ai/kg seeds) turned out to be 5.298 g; in experiment [1] (0.005 g ai/kg seeds), 5.018 g; in experiment [1] (0.05 g ai/kg seeds), 4.438 g; in experiment [3] (0.0001 g ai/kg seeds) it was 6.053 g; in experiment [3] (0.005 g ai/kg seeds) it was 6.010 g; in experiment [3] (0.05 g ai/kg seeds) it was 6.023 g. The “Gmax (%) … as percentage of sown seeds” value was found to be 77.0% in experiment [2] (setting [5]) and 90.5% in experiment [2] (setting [6]). In addition, the figures for the “stimulation (%), extra germination” value in experiment [2] (setting [5]) and in experiment [2] (setting [6]) were 28.3% and 0.0%, respectively.
In the case of `CC1=CC(OC=C2C(=O)NC3c4cccc(Br)c4CC23)OC1=O` (stereo not drawn) [Compound A2], the “Seedling emergence (%)” value is 48.5% in experiment [1] (0.0001 g ai/kg seeds, FS100); 49.5% in experiment [1] (0.005 g ai/kg seeds, FS100); 56% in experiment [1] (setting [4]); 89% in experiment [3] (0.0001 g ai/kg seeds); 87.5% in experiment [3] (0.005 g ai/kg seeds); 91.5% in experiment [3] (setting [7]). Moreover, the “Total shoot dry mass” value came out at 3.810 g in experiment [1] (0.0001 g ai/kg seeds); 3.725 g in experiment [1] (0.005 g ai/kg seeds); 3.993 g in experiment [1] (0.05 g ai/kg seeds); 5.763 g in experiment [3] (0.0001 g ai/kg seeds); 6.105 g in experiment [3] (0.005 g ai/kg seeds); 6.325 g in experiment [3] (0.05 g ai/kg seeds).
As to `CC1=CC(OC=C2C(=O)N(c3ccccc3)C3c4ccccc4CC23)OC1=O` (stereo not drawn) [Compound A3], the “Seedling emergence (%)” value is listed as 67% in experiment [1] (0.0001 g ai/kg seeds, FS100); 57% in experiment [1] (0.005 g ai/kg seeds, FS100); 51.5% in experiment [1] (setting [4]); 91% in experiment [3] (0.0001 g ai/kg seeds); 87% in experiment [3] (0.005 g ai/kg seeds); 81% in experiment [3] (setting [7]). Moreover, the “Total shoot dry mass” value in experiment [1] (0.0001 g ai/kg seeds) worked out at 4.838 g; in experiment [1] (0.005 g ai/kg seeds) it was 4.540 g; in experiment [1] (0.05 g ai/kg seeds), 3.850 g; in experiment [3] (0.0001 g ai/kg seeds), 6.158 g; in experiment [3] (0.005 g ai/kg seeds), 6.235 g; in experiment [3] (0.05 g ai/kg seeds), 5.918 g. Also, the “Gmax (%) … as percentage of sown seeds” value is reported as 74.5% in experiment [2] (setting [5]) and 89.5% in experiment [2] (setting [6]). Besides, the “stimulation (%), extra germination” value is on record as 24.2% in experiment [2] (setting [5]) and −1.1% in experiment [2] (setting [6]).
On to `CC(=O)N1C(=O)C(=COC2C=C(C)C(=O)O2)C2Cc3ccccc3C21` (stereo not drawn) [Compound A4], for which the “Seedling emergence (%)” value was 62% in experiment [1] (0.0001 g ai/kg seeds, FS100); 62.5% in experiment [1] (0.005 g ai/kg seeds, FS100); 61.5% in experiment [1] (setting [4]); 89% in experiment [3] (0.0001 g ai/kg seeds); 90% in experiment [3] (0.005 g ai/kg seeds); 86% in experiment [3] (setting [7]). Also, the “Total shoot dry mass” value in experiment [1] (0.0001 g ai/kg seeds) worked out at 4.788 g; in experiment [1] (0.005 g ai/kg seeds), 4.550 g; in experiment [1] (0.05 g ai/kg seeds) it was 4.850 g; in experiment [3] (0.0001 g ai/kg seeds), 6.035 g; in experiment [3] (0.005 g ai/kg seeds) it was 5.908 g; in experiment [3] (0.05 g ai/kg seeds) it was 5.920 g. The “Gmax (%) … as percentage of sown seeds” value in experiment [2] (setting [5]) came to 82.0%; in experiment [2] (setting [6]), 91.0%. The “stimulation (%), extra germination” value worked out at 36.7% in experiment [2] (setting [5]) and 0.6% in experiment [2] (setting [6]).
As for `CC1=C(C)C(OC=C2C(=O)NC3c4ccccc4CC23)OC1=O` (stereo not drawn) [Compound A7], in experiment [2] (setting [8]), the “Gmax (%) … as percentage of sown seeds” value was found to be 68.5% and the “stimulation (%), extra germination” value stood at 26.9%. For the same compound, in experiment [2] (setting [9]), the “Gmax (%) … as percentage of sown seeds” value was found to be 95.0% and the “stimulation (%), extra germination” value is 10.5%.
Regarding `CC1=CC(OC=C2C(=O)N(C)C3c4ccccc4CC23)OC1=O` (stereo not drawn) [Compound A8], in experiment [2] (setting [8]), the “Gmax (%) … as percentage of sown seeds” value is reported as 73.0% and the “stimulation (%), extra germination” value is reported as 35.2%. In experiment [2] (setting [9]), the “Gmax (%) … as percentage of sown seeds” value was 93.5% and the “stimulation (%), extra germination” value is 8.7%.
With `CC1=C[C@H](O/C=C2/C(=O)O[C@@H]3c4ccccc4C[C@H]23)OC1=O` [GR24, reference compound], the “Gmax (%) … as percentage of sown seeds” value is on record as 71.5% in experiment [2] (setting [5]), 80.0% in experiment [2] (setting [8]), 93.5% in experiment [2] (setting [6]) and 93.0% in experiment [2] (setting [9]). For the same compound, the “stimulation (%), extra germination” value in experiment [2] (setting [5]) amounted to 19.2%; in experiment [2] (setting [8]), 48.1%; in experiment [2] (setting [6]) it was 3.3%; in experiment [2] (setting [9]) it was 8.1%.
